# Source: patent US8039501B2, “Synephrine derivatives useful as anti-inflammatory agents” (Universiteit Gent, priority 2005, dated 2011)
# Several values for one entry are separate records, joined by “and”; a condition that tells them apart may be missing. Equal entries are not always repeated.
# Legend:
# B-CLL cells = test: Annexin V/PI flow cytometric analysis of apoptosis in ex-vivo cultured B-CLL cells; format: cell-based, human; conditions: 24 hours
# Procedure: Blood samples were obtained from B-CLL patients after informed consent according to institutional guidelines. CLL lymphocytes were isolated using Lymphoprep (Nycomed Pharma, Denmark) and re-suspended at a final concentration of 10−30×10^6 cells/ml in RPMI 1640 medium, supplemented with 10% heat-inactivated fetal bovine serum (FBS) (Greiner Bio-one, Wemmel, Belgium), 100 IU/ml penicillin, 100 μg/ml streptomycin, and 0.56 μg/mL fungizone (Gibco BRL, Merelbeke, Belgium). B-CLL cells were cultured in Dulbecco's Modified Eagle Medium (DMEM) (Gibco, Invitrogen Inc.) containing 10% FBS (Gibco, Invitrogen Inc.). For flow cytometric analysis of apoptosis, B-CLL cells were treated with the different compounds for 24 hours, 3×10^5 cells were removed from the culture medium, washed twice with cold PBS, and double stained with annexin V-fluorescein isothiocyanate (FITC) and propidium iodide (PI; Beckman Coulter, Miami, Fla.) in Annexin binding buffer, followed by analysis on a FC500PTM (Beckman Coulter, Nyon, Switzerland) flow cytometer. Flow cytometric data were analyzed using Cytomixs RXP software (Beckman Coulter, Nyon, Switzerland). To avoid non-specific fluorescence from dead cells, live cells were gated using forward and side scatter.
# One of the early signs of apoptosis is the translocation of the membrane phospholipid phosphatidylserine from the cytoplasmic interface to the extracellular surface. Annexin V has a high affinity for the phospatidylserine-containing phospholipid bilayers. […] As the plasma membrane becomes increasingly permeable during the later stages of apoptosis, the DNA-binding dye PI can readily move across the cell membrane and bind to cellular DNA, providing a means to detect the loss of membrane integrity through mechanisms including necrosis. Three different cell populations can be observed in cells double-stained with AnnV-FITC and PI. […] Cells that stain with Ann V only are early apoptotic cells. And cells that stain with both AnnV and PI are late apoptotic/necrotic cells. The percentage of AnnV-positive B-CLL cells in the lymphocyte gate were measured by FACS and results were expressed as % apoptotic cells, i.e. sum of early apoptotic (AnnV+, PI−), and late apoptotic/dead cells (AnnV+, PI+). The percent of living cells was normalized to 100% living cells incubated in control medium with 0.1% EtOH. All measurements were made in duplicate and averaged.
# NF-κB = test: EMSA of NF-κB DNA binding in Namalwa B cells; format: cell-based, human; conditions: 10, 0.1, 0.01, 0.001 μM, TNF 2000 IU/ml, FIG. 8B
# MCF7 breast cancer cells = test: Human Cancer Pathway Finder GEarray hybridization, MCF7 cells; format: cell-based; conditions: 10^−5 M
# Procedure: mRNA of MCF7 breast cancer cells left untreated or treated with CpdA was analyzed for variation in gene expression by means of RNase protection analysis and nylon arrayfilter hybridization (SuperArray filters i.e. cancer pathway finder and stress and toxicity pathway array). From these experiments it can be derived that the synephrine analogues show a unique gene expression profile with respect to target genes involved in apoptosis, cell cycle, metastasis, angiogenesis, stress responses, and the like. At the same time, the synephrine analogue-induced gene expression prophile is distinct from the gene expression response observed with classical glucorticoids.
# For the total RNA extraction, 10^5 cell were homogenized in 1 ml of TRIzol Reagent (GIBCO BRL), incubated 5 minutes at room temperature; then added 200 μl chloroform, vortexed 15 seconds. Mix was incubated on ice for 5 minutes. Phase separation was done by centrifugation at 12000 rpm for 15 minutes at 4° C. […]
# Membranes were washed twice with 5 ml of pre-warmed wash solution 2×SSC, 1% SDS for 10 minutes at 68° C. with agitation at 30-40 rpm/minute. […] Visualization and quantitation of radioactive bands was carried out by a Phosphorlmager and scanned using a bioimaging analyzer (Personal Molecular Imager® FX Bio-Rad). Densitometry analysis of autoradiograms was performed using Quantity One (Bio-Rad). […]
# MG63b = test: Q-PCR gene expression in osteosarcoma cell-line MG63b; format: cell-based, human; conditions: 10 μM
# Procedure: CpdA was synthesized as described previously. […] They were sacrificed and livers were isolated. […] Gene expression of HPRT was used for normalization. […] Gene expression of HPRT was used for normalization. […] Gene expression of HPRT was used for normalization. Statistical significance was determined by one way anova. […] Gene expression of HPRT was used for normalization. […] Gene expression of HPRT was used for normalization. Statistical significance was determined by one way anova. […] Statistical significance was determined with a Kruskal-Wallis test.
smiles,measurement,setting,value
"CNCC(Cl)c1ccc(OC(C)=O)cc1.Cl (centres unmarked) [CpdA, 2-(4-acetoxyphenyl)-2-chloro-N-methyl-ethylammonium chloride]","% apoptotic cells, CLL patient 1",B-CLL cells; 10^−6M,43%
same,"% apoptotic cells, CLL patient 2",B-CLL cells; 10^−6M,54%
same,Apoptosis in cells from 2 different CLL patients,B-CLL cells; 10^−7M,40% and 55%
same,NF-κB binding to kB DNA sequence (EMSA),NF-κB,inhibits NF-κB binding to kB DNA sequence
same,"Expression of cancer target genes TP53, TNFRSF12, MAP2K1, RAF, ITGA6, NCAM, PDGF, MMP9, MTA1, TIMP1",MCF7 breast cancer cells,represses
same,Expression of OPG,"MG63b; 24 hours, FIG. 14B",does not down-regulate the expression of OPG
same,Expression of cathepsin K,"MG63b; 24 hours, FIG. 14B",does not stimulate the expression of cathepsin K
same,Expression of pro-inflammatory mediators (anti-inflammatory effect),"MG63b; TNF 2000 U/ml 6 hours, FIG. 14A",anti-inflammatory effect
